Measured values as given in US20050014753A1, “Novel compounds and compositions as protein kinase inhibitors” (IRM LLC, priority 2003, published 2005).

Experiments:
Assay type in all cases: cell-based
wild-type Bcr-abl = molecular target: T1, wild-type Bcr-abl (Homo sapiens, UniProt P00519); assay: Antiproliferative effect on Ba/F3 cells expressing wild type Bcr-abl
T1 construct: expressed in transfected cells; host or cells: Ba/F3 (murine pro-B cells); the other entry of the earlier key: BCR (P11274, Breakpoint cluster region protein)
Method: (§1) Compounds selectively inhibiting the proliferation of these Bcr-abl transformed cells are tested for anti-proliferative activity on Ba/F3 cells expressing either wild type or the mutant forms of Bcr-abl.
(§2) 32D-p210 cells are plated into 96 well TC plates at a density of 15,000 cells per well. 50 μL of two fold serial dilutions of the test compound (Cmax is 40 μM) are added to each well (ST1571 is included as a positive control). After incubating the cells for 48 hours at 37° C., 5% CO2, 15 μL of MTT (Promega) is added to each well and the cells are incubated for an additional 5 hours. The optical density at 570 nm is quantified spectrophotometrically and IC50 values, the concentration of compound required for 50% inhibition, determined from a dose response curve.
(§3) Compounds of the invention are tested for their antiproliferative effect on Ba/F3 cells expressing either wild type or the mutant forms of Bcr-abl (G250E, E255V, T315I, F317L, M351T) that confers resistance or diminished sensitivity to STI571. The antiproliferative effect of these compounds on the mutant-Bcr-abl expressing cells and on the non transformed cells were tested at 10, 3.3, 1.1 and 0.37 μM as described above (in media lacking IL3). The IC50 values of the compounds lacking toxicity on the untransformed cells were determined from the dose response curves obtained as describe above.

G250E Bcr-abl = molecular target: T2, G250E Bcr-abl (Homo sapiens, UniProt P00519, G250E); assay: Antiproliferative effect on Ba/F3 cells expressing mutant Bcr-abl G250E
T2 construct: expressed in transfected cells; host or cells: Ba/F3 (murine pro-B cells); the other entry of the earlier key: BCR (P11274, Breakpoint cluster region protein)
Method: as §1, §2, §3

E255V Bcr-abl = molecular target: T3, E255V Bcr-abl (Homo sapiens, UniProt P00519, E255V); assay: Antiproliferative effect on Ba/F3 cells expressing mutant Bcr-abl E255V
T3 construct: expressed in transfected cells; host or cells: Ba/F3 (murine pro-B cells); the other entry of the earlier key: BCR (P11274, Breakpoint cluster region protein)
Method: as §1, §2, §3

T3151 Bcr-abl = molecular target: T4, T3151 Bcr-abl (Homo sapiens, UniProt P00519, T315I, cells depend on it); assay: Antiproliferative effect on Ba/F3 cells expressing mutant Bcr-abl T315I
T4 construct: fused on or other part: P11274 (Breakpoint cluster region protein)
Method: as §1, §2, §3

F317L Bcr-abl = molecular target: T5, F317L Bcr-abl (Homo sapiens, UniProt P00519, F317L); assay: Antiproliferative effect on Ba/F3 cells expressing mutant Bcr-abl F317L
T5 construct: expressed in transfected cells; host or cells: Ba/F3 (murine pro-B cells); the other entry of the earlier key: BCR (P11274, Breakpoint cluster region protein)
Method: as §1, §2, §3

M351T Bcr-abl = molecular target: T6, M351T Bcr-abl (Homo sapiens, UniProt P00519, M351T); assay: Antiproliferative effect on Ba/F3 cells expressing mutant Bcr-abl M351T
T6 construct: expressed in transfected cells; host or cells: Ba/F3 (murine pro-B cells); the other entry of the earlier key: BCR (P11274, Breakpoint cluster region protein)
Method: as §1, §2, §3

- IC50 (wild-type Bcr-abl): 0.2 µM
- IC50 (G250E Bcr-abl): 4.78 µM
- IC50 (E255V Bcr-abl): 0.25 µM
- IC50 (T3151 Bcr-abl): 5.28 µM
- IC50 (F317L Bcr-abl): 4.45 µM
- IC50 (M351T Bcr-abl): 0.97 µM
SMILES: NC(=O)c1ccc(-c2cc(-c3cc(Nc4ccc(OC(F)(F)F)cc4)ncn3)ccn2)cc1 [Compound 97]
